SMILES strings stand for the structures. Where a name gives a salt, the structure may show the parent alone.

One assay relates to MDA-MB-436 cells. Description: Colony formation assay. It is filed as cell-based. As to conditions: Homo sapiens, seeding density 2000-4000 cells/well and treatment time 12-14 days. As to the method: A colony formation assay was performed to assess the activity of test compounds. MDA-MB-436 cells were harvested, counted and seeded in culture medium (DMEM+10% FBS+1% PS) at a specified density in a volume of 600-1000 μL per well in a 24-well cell culture plate. The plates were incubated overnight at 37° C. in a 5% CO2 incubator. Test compounds were dissolved in DMSO and added to the plate in duplicate wells for each concentration tested. On day 7, the supernatant was removed and 1000 μL of freshly diluted compounds were added to the plates. The plates were returned to incubator to continue incubation. After treatment with the compounds for a specified number of days, e.g. 10-14 days, detection was performed. For detection, the plate was incubated for 20 min after removing the medium and adding fixing solution. Subsequently, the fixing solution was removed and the plates washed with PBS. The plates were then stained with staining solution (0.1% (w/v) crystal violet). After removal of the staining solution, the plates were washed with PBS and scanned on a LICOR imager using the 700 nm channel.

Another assay addresses PARP1 (Homo sapiens, UniProt P09874). Description: PARP1 biochemical trapping assay (BPS PARPtrap). As to the method:
Compounds of the present disclosure were tested in a PARP1 biochemical trapping assay at BPS Bioscience (San Diego, CA). PARP1 is known to bind damaged DNA through its DNA-binding domains. Binding to DNA activates PARP1, and in the presence of NAD+, PARP1 ribosylates itself (auto-ribosylation), leading to PARP1 dissociation from the DNA due to the accumulated negative charge of the ribosyl polymer. In the presence of some inhibitors, however, PARP remains bound to the DNA, a phenomenon termed trapping.
The BPS PARPtrap assay kit for PARP1 (BPS Catalog #80584) was used. A series of dilutions of the compounds were prepared with 10% DMSO in water. The final concentration of DMSO was 1% in all reactions. The enzymatic reactions were conducted in duplicates at room temperature in a 96-well plate. The 45 μl reaction mixtures in PARPtrap buffer 1 containing PARP1 fluorescent labelled oligonucleotide duplex, PARP enzyme and the test compound were incubated at room temperature for 10 min. After pre-incubation, the enzymatic reaction was initiated by adding 5 μl of 10×NAD+ solution. The reaction was incubated for 45-60 min at room temperature.
Fluorescence polarization was measured at an excitation of 470 nm and an emission of 518 nm using a Tecan Infinite M1000 microplate reader. The blank value was subtracted from all other values. Fluorescence polarization was analyzed by Tecan Magellan 6 software and wells containing DNA were used as references. The fluorescence polarization data were then evaluated using GraphPad Prism software. The fluorescence polarization in absence of the compound in each data set was defined as 0% activity (FPo), while the fluorescence polarization in the absence of both NAD+ and the compound was defined as 100% activity (FPt). The percent activity in the presence of the compound was calculated according to the equation % activity=[FP−FPo]/[(FPt−FPo)]×100, where FP=the fluorescence polarization in the presence of the compound.
The values of % activity versus a series of compound concentrations were then plotted using non-linear regression analysis of a sigmoidal dose-response curve generated with the equation Y=B+(T−B)/1+10^((LogEC50−X)×Hill Slope), where Y=percent activity, B=minimum percent activity, T=maximum percent activity, X=logarithm of compound and Hill Slope=slope factor or Hill coefficient. The EC50 value was determined by the concentration causing a half-maximal percent activity. EC50 values are shown in Table C and are presented in ranges, in which “+++”<300 nM, 300 nM≤“++”<3000 nM, and “+”≥3000 nM.

PARP1, sequence (P09874 whole entry, the tested form may be a part): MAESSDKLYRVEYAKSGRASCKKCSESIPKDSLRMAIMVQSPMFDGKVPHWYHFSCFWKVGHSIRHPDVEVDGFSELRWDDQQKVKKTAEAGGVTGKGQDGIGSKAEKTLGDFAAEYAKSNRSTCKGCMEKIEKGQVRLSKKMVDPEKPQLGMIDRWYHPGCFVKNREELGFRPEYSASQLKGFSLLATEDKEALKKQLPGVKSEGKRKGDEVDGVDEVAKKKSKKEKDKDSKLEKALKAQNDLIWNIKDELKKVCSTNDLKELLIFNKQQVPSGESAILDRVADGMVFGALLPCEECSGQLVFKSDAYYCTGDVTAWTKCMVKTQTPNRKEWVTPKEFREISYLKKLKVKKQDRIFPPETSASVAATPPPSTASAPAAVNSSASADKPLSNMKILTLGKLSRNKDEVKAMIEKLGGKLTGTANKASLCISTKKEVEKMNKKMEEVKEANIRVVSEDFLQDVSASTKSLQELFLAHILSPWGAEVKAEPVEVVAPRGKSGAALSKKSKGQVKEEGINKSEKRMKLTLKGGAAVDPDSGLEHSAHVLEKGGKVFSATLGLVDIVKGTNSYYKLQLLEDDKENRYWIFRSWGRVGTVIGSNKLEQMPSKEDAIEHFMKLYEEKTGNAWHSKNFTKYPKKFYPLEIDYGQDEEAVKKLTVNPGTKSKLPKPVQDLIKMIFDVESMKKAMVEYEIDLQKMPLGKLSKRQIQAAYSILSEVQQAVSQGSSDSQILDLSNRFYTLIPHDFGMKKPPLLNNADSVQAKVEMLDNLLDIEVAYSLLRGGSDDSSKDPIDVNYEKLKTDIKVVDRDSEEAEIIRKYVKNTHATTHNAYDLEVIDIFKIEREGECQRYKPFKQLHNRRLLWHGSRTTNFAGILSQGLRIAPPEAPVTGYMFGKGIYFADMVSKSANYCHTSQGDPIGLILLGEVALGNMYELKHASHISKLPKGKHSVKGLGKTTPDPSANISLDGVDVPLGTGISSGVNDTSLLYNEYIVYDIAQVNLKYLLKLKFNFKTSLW

As to `CCn1c(=O)[nH]c2cc(CN3CCN(c4ccc(C(=O)NC)nc4C)CC3)sc2c1=O` [Compound 188, 5-(4-((3-ethyl-2,4-dioxo-1,2,3,4-tetrahydrothieno[3,2-d]pyrimidin-6-yl)methyl)piperazin-1-yl)-N,6-dimethylpicolinamide], in the assay with MDA-MB-436 cells, the inhibition at 0.3 µM was no less than 66.7%, the inhibition at 3 µM was no less than 66.7% and the inhibition at 30 µM was no less than 66.7%. Also, the EC50 on PARP1 was in the range of 300 to 3000 nM.
Take `CCn1c(=O)[nH]c2cc(CN3CCN(c4ccc(C(=O)NC)nc4C)CC3)ccc2c1=O` [Compound 16, 5-{4-[(3-ethyl-2,4-dioxo-1H-quinazolin-7-yl)methyl]piperazin-1-yl}-N,6-dimethylpyridine-2-carboxamide]: in the assay with MDA-MB-436 cells, the inhibition at 0.3 µM was no less than 66.7%, the inhibition at 3 µM is no less than 66.7% and the inhibition at 30 µM was no less than 66.7%. The molecule further showed an EC50 at PARP1 of less than 300 nM.
Regarding `CCn1c(=O)[nH]c2cc(CN3CCN(c4ccc(C(=O)NC)nc4)CC3)ccc2c1=O` [Compound 3, 5-(4-((3-ethyl-2,4-dioxo-1,2,3,4-tetrahydroquinazolin-7-yl)methyl)piperazin-1-yl)-N-methylpicolinamide formate], in the assay with MDA-MB-436 cells, the inhibition at 0.3 µM was no less than 66.7%, the inhibition at 3 µM was no less than 66.7% and the inhibition at 30 µM is no less than 66.7%. This molecule returned an EC50 at PARP1 of 300 to 3000 nM.
Regarding `CCN1Cc2ccc(CN3CCN(c4ccc(C(=O)NC)nc4)CC3)cc2NC1=O` [Compound 196, 5-(4-((3-ethyl-2-oxo-1,2,3,4-tetrahydroquinazolin-7-yl)methyl)piperazin-1-yl)-N-methylpicolinamide formate], in the assay with MDA-MB-436 cells, the inhibition at 0.3 µM was less than 33.3%, the inhibition at 3 µM is 33.3 to 66.7% and the inhibition at 30 µM was in the range of 33.3 to 66.7%. The molecule also displayed an EC50 at PARP1 of 300 to 3000 nM.
As to `CCn1c(=O)[nH]c2cc(CN3CCN(c4ccc(C(=O)NC)nc4C)CC3)ccc2c1=S` [Compound 51, 5-(4-((3-ethyl-2-oxo-4-thioxo-1,2,3,4-tetrahydroquinazolin-7-yl)methyl)piperazin-1-yl)-N,6-dimethylpicolinamide formate], in the assay on MDA-MB-436 cells, the inhibition at 0.3 µM was no less than 66.7%, the inhibition at 3 µM was no less than 66.7% and the inhibition at 30 µM was no less than 66.7%. On PARP1, the EC50 fell in the range of 300 to 3000 nM.

Source of the values: patent US20240132449A1, “HETEROCYCLIC COMPOUNDS AND METHODS OF USE THEREOF” (1cBio, Inc., priority 2022, published 2024).
